According to patent publication US7390806B2, “Antibiotics containing borinic acid complexes and methods of use” (Anacor Pharmaceuticals, Inc., priority 2002, dated 2008):
≈ marks a conversion by molar mass, not a printed value.

How the values were obtained:
S. aureus ATCC 29213 = assay: MIC determination, S. aureus ATCC 29213; type: cell-based, Staphylococcus aureus; conditions: for MIC: Staphylococcus aureus, ATCC29213, Table 1, read-out: MIC S. aureus ATCC 29213
[1] = test system: S. epidermidis ATCC 12228; assay: MIC determination, S. epidermidis ATCC 12228; type: cell-based, Staphylococcus epidermidis; conditions: for MIC: Staphylococcus epidermidis, ATCC12228, Table 1, read-out: MIC S. epidermidis ATCC 12228
S. pneumoniae ATCC 6301 = assay: MIC determination, S. pneumoniae ATCC 6301; type: cell-based, Streptococcus pneumoniae; conditions: for MIC S. pneumoniae ATCC 6301: Table 1; for MIC: Streptococcus pneumoniae, ATCC6301, Table 1, read-out: MIC S. pneumoniae ATCC 6301
E. faecalis ATCC 29212 = assay: MIC determination, E. faecalis ATCC 29212; type: cell-based, Enterococcus faecalis; conditions: for MIC: Enterococcus faecalis, ATCC29212, Table 1, read-out: MIC E. faecalis ATCC 29212
E. faecium CT-26 = assay: MIC determination, E. faecium CT-26; type: cell-based, Enterococcus faecium; conditions: for MIC: Enterococcus faecium, CT26, Table 1, read-out: MIC E. faecium CT-26
[2] = test system: M. catarrhalis ATCC 25238; assay: MIC determination, M. catarrhalis ATCC 25238; type: cell-based; conditions: for MIC M. catarrhalis ATCC 25238: Table 1; for MIC: Moraxella catarrhalis, ATCC25238, Table 1, read-out: MIC M. catarrhalis ATCC 25238

| Molecule | MIC S. aureus ATCC 29213 (S. aureus ATCC 29213; Table 1) [micrograms per ml] | MIC S. epidermidis ATCC 12228 ([1]; Table 1) [micrograms per ml] | MIC S. pneumoniae ATCC 6301 (S. pneumoniae ATCC 6301) [micrograms per ml] | MIC E. faecalis ATCC 29212 (E. faecalis ATCC 29212; Table 1) [micrograms per ml] | MIC E. faecium CT-26 (E. faecium CT-26; Table 1) [micrograms per ml] | MIC M. catarrhalis ATCC 25238 [2] [micrograms per ml] | other results |
| --- | --- | --- | --- | --- | --- | --- | --- |
| Oc1cccc2cccnc12 [Compound 96, 8-hydroxyquinoline] | 2 | 1 | 2 | 8 | 2 | 1 | – |
| Oc1cccc2cccnc12 [Compound 30, 8-hydroxyquinoline] | 1 | 0.5 | – | 2 | 2 | – | – |
| Oc1cccc2cccnc12 [Compound 82, 8-hydroxyquinoline] | 2 | 2 | 2 | 8 | 2 | 4 | – |
| Oc1ccc(F)c2cccnc12 [Compound 35] | 1 | 2 | 2 | 8 | 4 | 2 | – |
| Oc1ccc(Cl)c2cccnc12 [Compound 49] | 2 | 1 | 1 | 16 | 2 | 0.25 | – |
| Oc1cccc2cccnc12 [Compound 45, 8-hydroxyquinoline] | 1 | 1 | 1 | 8 | 1 | 1 | – |
| Oc1cccc2cccnc12 [Compound 27, 8-hydroxyquinoline] | 0.5 | 1 | 1 | 8 | 2 | 1 | – |
| Oc1cccc2cccnc12 [Compound 59, 8-hydroxyquinoline] | 2 | 1 | 1 | 8 | 4 | 2 | – |
| Oc1cccc2cccnc12 [Compound 39, 8-hydroxyquinoline] | 1 | 1 | 1 | 8 | 2 | 2 | – |
| Oc1cccc2cccnc12 [Compound 76, 8-hydroxyquinoline] | 2 | 1 | – | 8 | 4 | – | – |
| Oc1cccc2cccnc12 [Compound 99, 8-hydroxyquinoline] | 2 | 1 | 2 | 8 | 2 | 1 | – |
| Oc1cccc2cccnc12 [Compound 56, 8-hydroxyquinoline] | 2 | 2 | 2 | 8 | 4 | 4 | – |
| Oc1ccc(Cl)c2cccnc12 [Compound 13] | 0.125 | – | – | 64 | – | – | MIC [1]: 1 µg/mL (≈ 5.57 µM); MIC (S. pneumoniae ATCC 6301): 1 µg/mL (≈ 5.57 µM); MIC (E. faecium CT-26): 2 µg/mL (≈ 11.1 µM); MIC [2]: 0.25 µg/mL (≈ 1.39 µM) |
| Oc1cccc2cccnc12 [Compound 38, 8-hydroxyquinoline] | 1 | 1 | 2 | 16 | 2 | 1 | – |
| Oc1c(Cl)cc(Cl)c2cccnc12 [Compound 71] | 2 | 2 | 8 | 64 | 4 | 0.12 | – |
| Oc1cccc2cccnc12 [Compound 69, 8-hydroxyquinoline] | 2 | 1 | 2 | 64 | 4 | 1 | – |
| Oc1cccc2cccnc12 [Compound 20, 8-hydroxyquinoline] | 0.25 | 1 | 2 | 8 | 4 | 2 | – |
| Oc1cccc2cccnc12 [Compound 79, 8-hydroxyquinoline] | 2 | 2 | 2 | 8 | 4 | 2 | – |
| Oc1cccc2cccnc12 [Compound 42, 8-hydroxyquinoline] | 1 | 1 | 1 | 8 | 2 | 1 | – |
| Fc1cccc(B(Oc2cccc3cccnc23)C2CC2)c1 [Compound 70, (3-Fluorophenyl)cyclopropylborinic acid 8-hydroxyquinoline ester] | 2 | 1 | 1 | 64 | 2 | 0.5 | – |
| N#Cc1ccc(O)c2ncccc12 [Compound 21, 5-cyano-8-hydroxyquinoline] | – | – | – | – | – | – | MIC (S. aureus ATCC 29213): 0.5 µg/mL (≈ 2.94 µM); MIC [1]: 4 µg/mL (≈ 23.5 µM); MIC (S. pneumoniae ATCC 6301): 2 µg/mL (≈ 11.8 µM); MIC (E. faecalis ATCC 29212): 16 µg/mL (≈ 94 µM); MIC (E. faecium CT-26): 8 µg/mL (≈ 47 µM); MIC [2]: 0.25 µg/mL (≈ 1.47 µM) |
| Oc1cccc2cccnc12 [Compound 63, 8-hydroxyquinoline] | 2 | 1 | 2 | 8 | 4 | 1 | – |
| Oc1cccc2cccnc12 [Compound 18, 8-hydroxyquinoline] | 0.25 | 1 | 2 | 8 | 4 | 1 | – |
| Oc1cccc2nc[nH]c12 [Compound 11, 4-hydroxybenzimidazole] | – | – | – | – | – | – | MIC (S. aureus ATCC 29213): 0.125 µg/mL (≈ 0.932 µM); MIC [1]: 4 µg/mL (≈ 29.8 µM); MIC (E. faecalis ATCC 29212): 8 µg/mL (≈ 59.6 µM); MIC (E. faecium CT-26): 8 µg/mL (≈ 59.6 µM) |
| CB(Oc1cccc2cccnc12)c1cccs1 [Compound 26, (2-Thienyl)methylborinic acid 8-hydroxyquinoline ester] | 0.5 | 1 | – | 4 | 4 | – | – |
| O=C(O)c1cc(O)c2ccccc2n1 [Compound 31] | – | – | – | – | – | – | MIC (S. aureus ATCC 29213): 1 µg/mL (≈ 5.29 µM); MIC [1]: 1 µg/mL (≈ 5.29 µM); MIC (E. faecalis ATCC 29212): 2 µg/mL (≈ 10.6 µM); MIC (E. faecium CT-26): 1 µg/mL (≈ 5.29 µM) |
| 4-hydroxybenzimidazole [Compound 120] | – | – | – | – | – | – | MIC S. aureus ATCC 29213 (S. aureus ATCC 29213; Table 2): 0.125 micrograms per ml; MIC S. epidermidis ATCC 12228 ([1]; Table 2): 4 micrograms per ml; MIC E. faecalis ATCC 29212 (E. faecalis ATCC 29212; Table 2): 8 micrograms per ml; MIC E. faecium CT-26 (E. faecium CT-26; Table 2): 8 micrograms per ml |
| Oc1cccc2cccnc12 [Compound 52, 8-hydroxyquinoline] | 2 | 4 | – | 8 | 16 | – | – |
